Results from patent publication US10499643B2, “Synergistic herbicidal composition and the method of controlling the growth of undesired plants” (JIANGSU ROTAM CHEMISTRY CO., LTD, priority 2016, dated 2019).

Tested on: gramineous weeds, broadleaf weeds, sedge weeds
Experiment: Post-emergence test: stem and leaf treatment of potted weeds, fresh weight inhibition rate, synergy by Colby's equation
Format: in vivo
Description: The assessment on the synergistic effect of mixing two or more herbicidal active ingredients is determined based on the Colby's equation as described in “Calculation Synergistic and Antagonistic Response of Herbicide Combinations (Weeds 15/1 (1967), S. R. Colby)”.
Use stem and leaf treatment for potted grown plant (NY/T 1155.4-2006): fill a plastic pot (6 cm height, 9 cm diameter) with a quantity of soil and sow 15 to 20 seeds of monocotyledonous weeds and dicotyledonous weeds in the plastic pot, cover it with 0.5 to 1 cm thick of fine soil and then put it in greenhouse for cultivation. When weeds grow to the 2 to 4 leave stage, conduct the stem and leaf spray treatment with 1 mL herbicidal solution on each pot and repeat four times for each treatment and leave some pots untreated as control group. Keep the treated pots in a greenhouse for cultivation and observe the growing status of target weeds periodically. Conduct the visual test on the target weeds regarding the damage symptoms and growth inhibition effect after 21 days. Weigh up the fresh weight above the ground or plant fresh weight and evaluate the toxicity of the herbicidal formulation on target weeds based on the fresh weight inhibition rate of the target.
Prepare the following three formulations according to specific weight percentages: 1. Pyroxasulfone; 2. […] After that, dilute above formulations with water to obtain diluted formulations.
Conduct visual assessment the damage symptom and growth inhibition status of target weeds after 21 days. Weigh up the fresh weight above the ground and calculate the inhibition rate of fresh weight (%).
The assessment on the synergistic effect of mixing two or more herbicidal active ingredients is determined based on the Colby's equation as described in “Calculation Synergistic and Antagonistic Response of Herbicide Combinations (Weeds 15/1(1967), S. R. Colby)”.
Wherein, X represents Fresh Weight Inhibition Rate of Pyroxasulfone when applied alone at certain application rate against target weeds;

Row | Compound | Herbicidal Activity % Experimental Data (Thifensulfuron methyl 1 g ai/ha alone) [%] | Herbicidal Activity % Experimental Data (Thifensulfuron methyl 5 g ai/ha alone) [%] | Herbicidal Activity % Experimental Data (Thifensulfuron methyl 10 g ai/ha alone) [%] | Herbicidal Activity % Experimental Data (Thifensulfuron methyl 25 g ai/ha alone) [%] | Herbicidal Activity % Experimental Data (Thifensulfuron methyl 50 g ai/ha alone) [%] | inhibition at 1 g/ha (post-emergence, Pyroxasulfone 1 g ai/ha alone, read-out: Herbicidal Activity % Experimental Data) [%] | inhibition at 5 g/ha (post-emergence, Pyroxasulfone 5 g ai/ha alone, read-out: Herbicidal Activity % Experimental Data) [%] | inhibition at 10 g/ha (post-emergence, Pyroxasulfone 10 g ai/ha alone, read-out: Herbicidal Activity % Experimental Data) [%] | inhibition at 25 g/ha (post-emergence, Pyroxasulfone 25 g ai/ha alone, read-out: Herbicidal Activity % Experimental Data) [%] | inhibition at 50 g/ha (post-emergence, Pyroxasulfone 50 g ai/ha alone, read-out: Herbicidal Activity % Experimental Data) [%]
1 | COC(=O)c1sccc1S(=O)(=O)NC(=O)Nc1nc(C)nc(OC)n1 [Thifensulfuron methyl] | 0 | 15.5 | 31.2 | 55.1 | 60.3 | – | – | – | – | –
2 | Cn1nc(C(F)(F)F)c(CS(=O)(=O)C2=NOC(C)(C)C2)c1OC(F)F [Pyroxasulfone, 3-[5-(difluoromethoxy)-1-methyl-3-(trifluoromethyl)pyrazol-4-ylmethylsulfonyl]-4,5-dihydro-5,5-dimethyl-1,2-oxazole] | – | – | – | – | – | 11 | 22 | 40 | 49 | 63
